Biological target: T1, human V2 vasopressin receptor subtype (Homo sapiens, UniProt P30518)
T1 construct: host or cells: CHO cells, stably transfected (pZeoSV vector); membranes
Experiment: Vasopressin binding in CHO cell membranes expressing human vasopressin V2 subtype receptors ([3H]arginine vasopressin)
Conditions: for IC50: value in parentheses; for inhibition at 0.1 µM / V2 % inhibition @ 100 nM: 100 nM, value without parentheses
Source text: Vasopressin Binding in Chinese Hamster Ovary Cell Membranes Expressing Human Vasopressin V2 Subtype Receptors
Chinese Hamster Ovary (CHO) cells stably transfected with the human V2 subtype receptors were obtained from M. Thibonnier, Case Western Reserve University School of Medicine, Cleveland, Ohio.
A. Passaging and Amplification of Cells:
CHO cells transfected with the human vasopressin V2 subtype receptors obtained from M. Thibonnier (pZeoSV vector) are allowed to grow to confluency (approx. >90%) in T-150 flasks under sterile conditions, in a cell culture medium of F-12 Nutrient Mixture (HAM) with L-glutamine (Gibco Cat. #11765-054) containing 15 mM HEPES (Gibco Cat. #15630-080), 1% antibiotic/antimycotic (add 5 mL 100×, Gibco Cat. #15240-062 per 500 mL F-12), 250 μg/mL Zeocin (add 1.25 mL of 100 mg/mL Invitrogen R-250-01 per 500 mL F-12) and 10% Fetal Bovine Serum (Qualified, heat inactivated, Gibco Cat. #16140-063). The medium is removed by aspiration and the cells washed with 10 mL of Hank's Balanced Salt solution (Gibco Cat. #14175-095). The salt solution is removed by aspiration and the cells trypsinized with 5 mL of trypsin-EDTA (0.05% trypsin, 0.53 mM EDTA-4Na, Gibco Cat. #25300-070) for 1 min. The trypsin is removed by aspiration and the cells dislodged by tapping. Cell Culture medium (e.g. 30 mL for 1:30 split) is immediately added and mixed well to inactivate trypsin. 1 mL of detached cells is added to new culture flasks containing fresh Cell Culture medium (e.g. into 25 mL per T-150 flask), and mixed gently. The cells are incubated at 37° C. in 5% CO2. The medium is changed at 3 to 4 day interval (or as appropriate). The cells grow to confluency (approx. >75%-95%) within 7-8 days. All steps are done under sterile conditions.
The cells are washed twice gently with Hank's Balanced Salt solution (e.g. use 10 mL per T-150 flask). The excess solution is removed and the cells bathed for 15-30 min. in an enzyme-free Cell Dissociation Buffer (e.g. use 8 mL Hank's Based, Gibco Cat. #13150-016 per T-150 flask) until cells are loosened. The contents are transferred to centrifuge tubes (50 mL size) kept in ice bath. All subsequent steps are done at 4° C. The tubes are centrifuged at 300×g for 15 min (1380 rpm on SORVAL, Model RT6000D, using rotor for 50 mL tubes). The supernatant is discarded and the cells suspended in homogeneizing buffer(10 mM Tris-HCl containing 0.25 M sucrose and 1 mM EDTA, pH 7.4) ensuring that the volume of the buffer is about ten times the volume of the cell pellet. The cells are pooled into a centrifuge tube (50 mL) and homogenized with Polytron at setting 6 for 10 sec. The homogenate is transferred into a Potter-Elvjehm homogeneizer and homogenized with 3 strokes. The homogenate is centrifuged at 1500×g for 60 min at 4° C. (3100 rpm using SORVAL, model RT6000D, using rotor for 50 mL tubes). The pellet is discarded. The supernatant is centrifuged at 100,000×g for 60 min. at 4° C. (Beckman L8-80M ultracentrifuge; spin at 37,500 rpm with rotor type 70 Ti for 50 mL tubes; 38,000 rpm with type 80Ti for 15 mL tubes; or 35,800 rpm with rotor type 45Ti). The supernantant is discarded and the pellet suspended in 3 to 4 mL of Tris buffer (50 mM TRIS-HCl, pH 7.4). The protein content is estimated by the Bradford or Lowry method. The volume of the membrane suspension is adjusted with the membrane buffer (50 mM Tris-HCl containing 0.1% BSA and 0.1 mM PMSF) to give 3.0 mg/mL (or as appropriate) of protein. The membranes are aliquoted and stored at −70° C.
C. Radioligand Binding Assay:
In wells of a 96-well format microtiter plate, is added 90, 110 or 130 μL (to make up a final volume of 200 μL) of assay buffer containing 50 mM of Tris-HCl (pH 7.4), […], 1 mg % aprotinin, 1 mg % leupeptin, 2 mg % 1,10-phenanthroline, 10 mg % trypsin inhibitor, and 0.1 mM PMSF. The inhibitors are added on the day of the experiment. […]

T1 sequence (P30518 whole entry): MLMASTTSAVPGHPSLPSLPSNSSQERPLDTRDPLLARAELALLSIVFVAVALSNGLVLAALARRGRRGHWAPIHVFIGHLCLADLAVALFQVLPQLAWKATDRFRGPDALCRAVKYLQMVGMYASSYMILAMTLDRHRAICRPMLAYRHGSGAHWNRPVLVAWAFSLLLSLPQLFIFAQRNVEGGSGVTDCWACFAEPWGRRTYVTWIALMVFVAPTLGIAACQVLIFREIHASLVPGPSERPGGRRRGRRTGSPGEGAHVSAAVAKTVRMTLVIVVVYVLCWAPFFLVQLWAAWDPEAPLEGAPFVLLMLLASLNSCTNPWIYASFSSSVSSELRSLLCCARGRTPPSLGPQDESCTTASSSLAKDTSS

For `COc1cc(C2=CCCCC2)c(Cl)cc1C(=O)N1Cc2ccc(C(=O)N(C)C[C@H](O)[C@@H](O)[C@H](O)[C@H](O)CO)n2Cc2ccccc21` [Example 1, 1-[[[10-[5-Chloro-4-(1-cyclohex-1-en-1-yl)-2-methoxybenzoyl]-10,11-dihydro-5H-pyrrolo[2,1-c][1,4]benzodiazepin-3-yl]carbonyl]methylamino]-1-deoxy-D-glucitol], the IC50 was 1.56 µM.

Work on `COc1cc(C2=CCCCC2)c(Cl)cc1C(=O)N1Cc2ccc(C(=O)O)n2Cc2ccccc21` [Example 1G, 10-(5-Chloro-4-cyclohex-1-en-1-yl-2-methoxybenzoyl)-10,11-dihydro-5H-pyrrolo[2,1-c][1,4]benzodiazepine-3-carboxylic acid] yielded an inhibition at 0.1 µM of 4%.

`COC[C@@H](OC)[C@@H](OC)[C@H](OC)[C@H](CN(C)C(=O)c1ccc2n1Cc1ccccc1N(C(=O)c1cc(Cl)c(C3=CCCCC3)cc1OC)C2)OC` [Example 2, 10-(5-Chloro-4-cyclohex-1-en-1-yl-2-methoxybenzoyl)-N-methyl-N-[(2S,3R,4R,5R)-2,3,4,5,6-pentamethoxyhexyl]-10,11-dihydro-5H-pyrrolo[2,1-c][1,4]benzodiazepine-3-carboxamide] was tested, and the IC50 was 4.59 µM.

`COc1cc(C2=CCCCC2)c(Cl)cc1C(=O)N1Cc2ccc(C(=O)N(C)C[C@@H]3OC(=O)O[C@H]3[C@H](O)[C@H]3COC(=O)O3)n2Cc2ccccc21` [Example 3, 10-(5-Chloro-4-cyclohex-1-en-1-yl-2-methoxybenzoyl)-N-[((4S,5S)-5-{(R)-hydroxy[(4R)-2-oxo-1,3-dioxolan-4-yl]methyl}-2-oxo-1,3-dioxolan-4-yl)methyl]-N-methyl-10,11-dihydro-5H-pyrrolo[2,1-c][1,4]benzodiazepine-3-carboxamide] showed an IC50 of 2.62 µM.

Work on `COc1cc(C2=CCCCC2)c(Cl)cc1C(=O)N1Cc2ccc(C(=O)N(C)CC(O)CO)n2Cc2ccccc21` (stereo not shown) [Example 4, 10-(5-Chloro-4-cyclohex-1-en-1-yl-2-methoxybenzoyl)-N-(2,3-dihydroxypropyl)-N-methyl-10,11-dihydro-5H-pyrrolo[2,1-c][1,4]benzodiazepine-3-carboxamide] yielded an IC50 of 1.49 µM.

`Cc1cc(C(=O)N2Cc3ccc(C(=O)C(Cl)(Cl)Cl)n3Cc3ccccc32)ccc1C1=CCCCC1` [Example 5D, 2,2,2-Trichloro-1-[10-(4-cyclohex-1-en-1-yl-3-methyl-benzoyl)-10,11-dihydro-5H-pyrrolo[2,1-c][1,4]benzodiazepin-3-yl]-methanone] was tested, and the “V2 % inhibition @ 100 nM” value was 1%.

In the case of `Cc1cc(C(=O)N2Cc3ccc(C(=O)O)n3Cc3ccccc32)ccc1C1=CCCCC1` [Example 5E, 10-(4-Cyclohex-1-en-1-yl-3-methyl-benzoyl)-10,11-dihydro-5H-pyrrolo[2,1-c][1,4]benzodiazepine-3-carboxylic acid], the inhibition at 0.1 µM is reported as 15%.

Compound `Cc1cc(C(=O)N2Cc3ccc(C(=O)N(C)C[C@H](O)[C@@H](O)[C@H](O)[C@H](O)CO)n3Cc3ccccc32)ccc1C1=CCCCC1` [Example 5] has an IC50 of 2.11 µM.

With `Cc1cc(C(=O)N2Cc3ccc(C(=O)N(C)C[C@H](O)[C@H]4OC(=O)O[C@@H]4[C@H](O)CO)n3Cc3ccccc32)ccc1C1=CCCCC1` [Example 6, 10-(4-Cyclohex-1-en-1-yl-3-methylbenzoyl)-N-((2S)-2-{(4R,5R)-5-[(1R)-1,2-dihydroxyethyl]-2-oxo-1,3-dioxolan-4-yl}-2-hydroxyethyl)-N-methyl-10,11-dihydro-5H-pyrrolo[2,1-c][1,4]benzodiazepine-3-carboxamide] the IC50 was 0.558 µM.

Compound `Cc1cc(C(=O)N2Cc3ccc(C(=O)N(C)C[C@@H]4OC(=O)O[C@H]4[C@H](O)[C@H]4COC(=O)O4)n3Cc3ccccc32)ccc1C1=CCCCC1` [Example 7, 10-(4-Cyclohex-1-en-1-yl-3-methylbenzoyl)-N-[((4S,5S)-5-{(R)-hydroxy[(4R)-2-oxo-1,3-dioxolan-4-yl]methyl}-2-oxo-1,3-dioxolan-4-yl)methyl]-N-methyl-10,11-dihydro-5H-pyrrolo[2,1-c][1,4]benzodiazepine-3-carboxamide] has an inhibition at 0.1 µM of 14%.

Compound `COC[C@@H](OC)[C@@H](OC)[C@H](OC)[C@H](CN(C)C(=O)c1ccc2n1Cc1ccccc1N(C(=O)c1ccc(C3=CCCCC3)c(C)c1)C2)OC` [Example 8, 10-(4-Cyclohex-1-en-1-yl-3-methylbenzoyl)-N-methyl-N-[(2S,3R,4R,5R)-2,3,4,5,6-pentamethoxyhexyl]-10,11-dihydro-5H-pyrrolo[2,1-c][1,4]benzodiazepine-3-carboxamide] has an IC50 greater than 3 µM.

Work on `CCOC(=O)[C@H](Cc1ccc(O)cc1)NC(=O)c1ccc2n1Cc1ccccc1N(C(=O)c1ccc(C3=CCCCC3)c(C)c1)C2` [Example 9, (2S)-2-{[10-(4-Cyclohex-1-en-1-yl-3-methyl-benzoyl)-10,11-dihydro-5H-pyrrolo[2,1-c][1,4]benzodiazepine-3-carbonyl]-amino}-3-(4-hydroxy-phenyl)-propionic acid ethyl ester] yielded an inhibition at 0.1 µM of 11%.

In the case of `Cc1cc(C(=O)N2Cc3ccc(C(=O)N[C@@H](Cc4ccc(O)cc4)C(=O)O)n3Cc3ccccc32)ccc1C1=CCCCC1` [Example 10], the “V2 % inhibition @ 100 nM” value is reported as 15%.

For `COC(=O)[C@H](CO)NC(=O)c1ccc2n1Cc1ccccc1N(C(=O)c1ccc(C3=CCCCC3)c(C)c1)C2` [Example 11, (2S)-2-{[10-(4-Cyclohex-1-en-1-yl-3-methyl-benzoyl)-10,11-dihydro-5H-pyrrolo[2,1-c][1,4]benzodiazepine-3-carbonyl]-amino}-3-hydroxy-propionic acid methyl ester], the inhibition at 0.1 µM was 10%.

`COC(=O)[C@@H](CO)NC(=O)c1ccc2n1Cc1ccccc1N(C(=O)c1ccc(C3=CCCCC3)c(C)c1)C2` [Example 12, (2R)-2-{[10-(4-Cyclohex-1-en-1-yl-3-methyl-benzoyl)-10,11-dihydro-5H-pyrrolo[2,1-c][1,4]benzodiazepine-3-carbonyl]-amino}-3-hydroxy-propionic acid methyl ester] was tested, and the inhibition at 0.1 µM was 9%.

Compound `Cc1cc(C(=O)N2Cc3ccc(C(=O)N[C@@H](CO)C(=O)O)n3Cc3ccccc32)ccc1C1=CCCCC1` [Example 13, (2S)-2-{[10-(4-Cyclohex-1-en-1-yl-3-methyl-benzoyl)-10,11-dihydro-5H-pyrrolo[2,1-c][1,4]benzodiazepine-3-carbonyl]-amino}-3-hydroxy-propionic acid] has an inhibition at 0.1 µM of 9%.

In the case of `Cc1cc(C(=O)N2Cc3ccc(C(=O)N[C@H](CO)C(=O)O)n3Cc3ccccc32)ccc1C1=CCCCC1` [Example 14, (2R)-2-{[10-(4-Cyclohex-1-en-1-yl-3-methyl-benzoyl)-10,11-dihydro-5H-pyrrolo[2,1-c][1,4]benzodiazepine-3-carbonyl]-amino}-3-hydroxy-propionic acid], the inhibition at 0.1 µM is reported as 11%.

`Cc1cc(C(=O)N2Cc3ccc(C(=O)O)n3Cc3ccccc32)ccc1C1=CCCc2ccccc21` [Example 15B, 10-[4-(3,4-Dihydro-naphthalen-1-yl)-3-methyl-benzoyl]-10,11-dihydro-5H-pyrrolo[2,1-c][1,4]benzodiazepine-3-carboxylic acid] was tested, and the inhibition at 0.1 µM was 40%.

`Cc1cc(C(=O)N2Cc3ccc(C(=O)N(C)C[C@H](O)[C@@H](O)[C@H](O)[C@H](O)CO)n3Cc3ccccc32)ccc1C1=CCCc2ccccc21` [Example 15] gave an IC50 of 0.121 µM.
